US12391698B2, “Substituted piperidines and piperazines and methods for the treatment of CNS disorders” (SUVEN LIFE SCIENCES LIMITED, priority 2022, dated 2025)
Structures can show the parent of a compound that is named as a salt.

Key:
[1] = target: T1, recombinant human 5-HT1A receptor (Homo sapiens, UniProt P08908); assay: Determination of Kb at 5-HT1A receptor, pCRE-Luc reporter gene assay in CHO cells; type: cell-based
T1 construct: expressed in transfected cells
T1 sequence (P08908 1-422): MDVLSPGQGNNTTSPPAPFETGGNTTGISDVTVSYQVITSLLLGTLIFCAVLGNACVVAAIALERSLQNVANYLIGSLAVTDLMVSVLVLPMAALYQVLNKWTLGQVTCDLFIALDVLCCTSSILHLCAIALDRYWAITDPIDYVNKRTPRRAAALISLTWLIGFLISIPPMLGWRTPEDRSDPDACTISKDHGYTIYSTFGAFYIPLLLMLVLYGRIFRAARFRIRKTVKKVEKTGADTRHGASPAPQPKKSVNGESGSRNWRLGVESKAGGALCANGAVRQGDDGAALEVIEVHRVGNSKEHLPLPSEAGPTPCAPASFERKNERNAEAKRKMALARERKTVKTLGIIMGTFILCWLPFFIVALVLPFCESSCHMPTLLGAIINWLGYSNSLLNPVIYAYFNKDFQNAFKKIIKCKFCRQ
Method: A stable CHO cell line expressing recombinant human 5-HT1A receptor and pCRE-Luc reporter system was used for cell-based assay. The assay offers a non-radioactive based approach to determine binding of a compound to GPCRs. In this specific assay, the level of intracellular cAMP which is modulated by activation or inhibition of the receptor is measured. The recombinant cells harbor luciferase reporter gene under the control of cAMP response element.
The above cells were grown in 96 well clear bottom white plates in Hams F12 medium containing 10% fetal bovine serum (FBS). Prior to the addition of compounds or standard agonist, cells were serum starved overnight. Increasing concentrations of test compound were added along with 1 μM of U92016A and 1 μM of forskolin in Opti-MEM medium to the cells. The incubation was continued at 37° C. in CO2 incubator for 4 hours. Medium was removed and cells were washed with phosphate buffered saline. The cells were lysed and luciferase activity was measured in a Luminometer. Luminescence units were plotted against the compound concentrations using GraphPad Prism software. EC50 values of the compounds were defined as the concentration required in reducing the luciferase activity by 50%. The Kb values were calculated by feeding the concentration of agonist used in the assay and its EC50 value in the same software.

Male Sprague Dawley rats = assay: Amphetamine-induced hyperlocomotion; type: in vivo, rat; conditions: 3 mg/kg, p.o., dosed 30 min prior to trial
Method: Male Sprague Dawley rats of 230-280 g body weight were used. Rats were weighed and randomized according to their body weights. Following day, the rats were brought to the laboratory 1 h prior to test. In the morning session, rats were habituated to open field arena for 15 min. Test compound/vehicle and amphetamine/vehicle were administered 30 min prior to the trial. After the post-dose interval, rats were placed in the open field and locomotion was recorded for a period of 15 min. Amphetamine-induced hyperlocomotion models positive symptoms of schizophrenia.

Male CD1 mice = assay: Resident-intruder task; type: in vivo, mouse; conditions: 3.0 mg/kg, p.o., 30 min prior to trial
Method: Male CD1 mice of weight 20-35 g (Resident) and 15-25 g (Intruder) were used. Resident mice were habituated individually with an ovariectomized female mouse in each cage and intruders were habituated socially for 1 week. β-estradiol at a dose of 0.2 mg/kg, s.c. was administered to female mice during habituation. On day 1 and day 2, intruder was exposed to resident mouse in resident's home cage for a period of 10 min and duration of attack was measured. During this exposure, female mouse were removed from the cage. On day 4 from initial exposure, animals were randomized based on their duration of attacking and administered respective treatments. Test compound and vehicle were administered 30 min prior to the trial. After post dose interval resident mice were exposed to same intruder for 10 min and duration of attack was recorded. Resident intruder task models aggressive behavior.

Male Wistar rats = assay: Rotarod test; type: in vivo, rat; conditions: 30 mg/kg p.o., 60 min prior to trial
Method: Male Wistar rats of 200-280 g body weight were used. Rats were weighed and randomized according to their body weights. The animals were habituated on a rotating rod (4 rpm) for 4 times. Animals which successfully stayed on the rotating rod for 60 seconds (out of 4 trials per animal) were selected for further study. […] A single trial was carried out on the next day. Animals that were able to stay on the rotating rod for 60 seconds were chosen for further study. Animals were administered with test compound or vehicle 60 min prior to the trial. The latency to fall from the rotating rod was noted. Rotarod test assesses effects of test compound on motor functions.

Rats = assay: Tardive dyskinesia test (vacuous chewing movements and tongue protrusions); type: in vivo, rat; conditions: 10 mg/kg, p.o. (5 mg twice a day) for 4 weeks
Method: Rats weighing 200-230 g were acclimatized to the plexiglass observation cages (30×20×30 cm) equipped with mirrors for 5 min. After acclimatization, basal vacuous chewing movements (VCMs) and tongue protrusions (TPs) of the rats were quantified manually for 5 min. Rats were randomized based on the basal readings. Rats received a single dose of sesame oil (vehicle treatment) or haloperidol decanoate (38 mg/kg, i.m. positive control). Example-2, 10 mg/kg, p.o. ([…]) was administered for 4 weeks. VCMs and TPs were scored on weekly basis for 4 weeks. Tardive dyskinesia is a side effect of antipsychotic medications.

[2] = test system: Dopamine and norepinephrine levels in prefrontal cortex and striatum; assay: Modulation in dopamine and norepinephrine levels in prefrontal cortex and striatum (microdialysis); type: in vivo; conditions: male Wistar rats; for mean maximum increase in dopamine levels in prefrontal cortex / mean maximum increase in norepinephrine levels in prefrontal cortex: s.c. (so in the source), basal = 100%
dopamine receptor = assay: Reserpine-induced dihydroxyphenylalanine (DOPA) accumulation assay in rat striatum; type: in vivo; conditions: s.c.
Method: Reserpine (5.0 mg/kg, s.c.) was injected, after which rats were fasted for 18 h before sacrifice. […] Each rat was sacrificed and the striatum was dissected out of the whole brain on ice. Each striatum was weighed and homogenized individually in buffer containing 0.01 N hydrochloric acid and 0.2 mg/ml L-cysteine. Supernatants were subjected for quantification of DOPA using HPLC coupled to electrochemical detector.

Male Swiss albino mice = assay: Forced swim test; type: in vivo, mouse; conditions: 10 mg/kg, p.o., 30 min after treatment
Method: Male Swiss albino mice having weight range of 30-40 g were used. Mice were dosed with vehicle or test compound. Thirty min after treatment, animals were individually placed inside the plexiglass cylinder (40 cm height×17 cm width) for 6 min. The depth of water (24±1° C.) was maintained at 18 cm. The immobility of the mice during the last 4 min were recorded in the 6 min trial. Forced swim test assesses antidepressant like effects of test compounds.

O=C1C[C@@H]2CCCN2C(=O)N1CCCCN1CCN(c2nsc3ccccc23)CC1 [Example 2, 2-[4-(4-Benzo[d]isothiazol-3-yl-piperazin-1-yl)-butyl]-tetrahydro-pyrrolo[1,2-c]pyrimidine-1,3-dione oxalate]
agonist activity at human recombinant 5-HT1A receptor ([1]; pCRE-Luc reporter gene assay): no detectable agonist activity
antagonistic activity at human recombinant 5-HT1A receptor ([1]; pCRE-Luc reporter gene assay): antagonistic activity
Kb ([1]; with 1 μM U92016A and 1 μM forskolin, luciferase readout): 2.3 nM
Inference, amphetamine antagonism (hyperlocomotion) (Male Sprague Dawley rats): Active
Inference, resident intruder task (duration of attack) (Male CD1 mice): Active
Inference, rotarod test (motor incoordination side effects) (Male Wistar rats): No motor incoordination
Inference, tardive dyskinesia like symptoms (VCMs and TPs) (Rats): Example-2 did not show tardive
mean maximum increase in dopamine levels in prefrontal cortex ([2]; 3 mg/kg): 326±24%
mean maximum increase in norepinephrine levels in prefrontal cortex ([2]; 3 mg/kg): 187±30%
mean maximum increase in dopamine levels in prefrontal cortex ([2]; 10 mg/kg): 458±91%
mean maximum increase in norepinephrine levels in prefrontal cortex ([2]; 10 mg/kg): 368±99%
change in dopamine levels in striatum [2]: no change
change in reserpine elevated DOPA levels in striatum (dopamine receptor; 10 mg/kg, rat, reserpine 5.0 mg/kg): no change
effect of pre-treatment on apomorphine's decrease of reserpine-induced DOPA accumulation (dopamine receptor; pre-treatment before apomorphine 0.1 mg/kg, rat striatum): blocked the effects of apomorphine
Inference, mice forced swim test (Male Swiss albino mice): Active
